Values belong to the compound of their own block, whether it stands above or below them.
Key:
SARM1 = molecular target: T1, SARM1 (Homo sapiens, UniProt Q6SZW1); test: In vitro enzyme inhibition activity (SAM-TIR lysate, NAD/ADPR by HPLC-MS/MS); assay type: biochemical; details: SAM-TIR lysate (SARM1 408-724) from NRK1-HEK293T cells; 25°C, 3 h with NAD
T1 construct: 408-724 expression plasmid and vector-control customized by SinoBio; host or cells: NRK1-HEK293T cells, transient transfection; crude clarified lysate used as the enzyme
T1 sequence (Q6SZW1 408-724 limits assumed): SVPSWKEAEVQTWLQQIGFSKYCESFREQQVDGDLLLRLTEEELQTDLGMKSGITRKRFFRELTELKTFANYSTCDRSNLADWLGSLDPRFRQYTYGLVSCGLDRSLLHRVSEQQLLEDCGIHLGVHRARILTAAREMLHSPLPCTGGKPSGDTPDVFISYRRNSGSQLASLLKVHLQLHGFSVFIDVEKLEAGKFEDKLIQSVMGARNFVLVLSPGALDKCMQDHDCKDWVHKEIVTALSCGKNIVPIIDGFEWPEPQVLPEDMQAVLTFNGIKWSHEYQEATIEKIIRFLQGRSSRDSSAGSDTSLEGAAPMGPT
Protocol: NRK1-HEK293T cells were seeded at approximately 10 × 10^6 cells/plate into 150 mm culture dishes containing 25 mL of growth medium. […] At the time of transfection, 250 µL of nicotinamide riboside (100 mM) was added to each dish to minimize toxicity from SAM-TIR overexpression. 48 hours after the transfection, the cells were washed three to four times with cold PBS and collected. The cells were resuspended in 0.5 mL of PBS containing protease inhibitors. Cell lysates were prepared by sonication. The lysate was centrifuged at 12500 rpm for 10 min at 4°C to remove cell debris, and protein concentration was determined by bicinchoninic acid (BCA) assay and used to normalize lysate concentration. The aliquots of supernatant were stored at -80°C until use.
• 1) Transfer the compound dilutions into an assay plate by Echo 650; • 2) Add 10µl 2× SAM-TIR lysate to each well; • 3) Seal the assay plate, centrifuge at 1000rpm for 1min, and incubate at 25°C for 30min; • 4) Add 10µl 2× NAD to each well; • 5) Centrifuge at 1000rpm for 1min, and incubate at 25°C for 3h; • 6) Add 40µL trichloroacetic acid to each well to terminate the reaction, mix and shake for 30s, and centrifuge at 4000rpm for 10min; • 7) Take 40µL supernatant from each well and add appropriate amount of ammonia water to adjust the pH; • 8) Detect nicotinamide adenine dinucleotide (NAD) and adenosine diphosphate ribose (ADPR) by HPLC-MS/MS.

[1] = Liver microsomal stability in vitro; assay type: in vitro ADME; details: liver microsomes, NADPH, 37 °C, 0-45 min
Protocol: 100 mM K-Mg-buffer containing 5 mM MgCl2 was preheated. The spiking solution was prepared by adding 5 µL of 10 mM compound and reference stock solution to 95 µL of acetonitrile (ACN). 1.5 µL of 500 µM spiking solution and 18.75 µL of 20 mg/mL liver microsomes were added to 479.8 µL of K-Mg-buffer. NADPH stock solution (3 mM) was prepared by dissolving NADPH in K-Mg-buffer. 30 µL of 1.5 µM spiking solution containing microsomes was evenly dropped into the assay plate at different time points (0, 5, 15, 30, and 45 min), and pre-incubated at 37 °C for 5 min. At 0 min, 200 µL of ACN containing IS (internal standard, tolbutamid/terfenadine) was added to the wells, then 15 µL of NADPH stock solution (6 mM) was added. For the other time points, the reaction was initiated and timed by adding 15 µL of NADPH stock solution (6 mM) to the wells. The reaction was stopped by adding 200 µL of ACN containing IS to the corresponding plate wells at 5, 15, 30, and 45 min, respectively. After quenching, the plate was shaken at 600 rpm for 10 min and then centrifuged at 4000 rpm for 50 min. 80 µL of supernatant per well was pipetted to a 96-well sample plate containing 160 µL of pure water for UPLC/MS/MS analysis.

[2] = Cell membrane permeability (cell monolayer, A to B and B to A); assay type: in vitro ADME; details: 120 min, 37°C; for Papp A→B at 2 h, 10 µM: A to B
Protocol: Test compounds were diluted from 10 mM stock solution to a concentration of 10 µM in transport buffer (HBSS + BSA) and applied to the apical or basolateral side of the cell monolayer. The permeability of the test compounds was determined in both direction of from A to B and B to A directions after 120 min incubation at 37°C, 5% CO2 and 95% relative humidity. In addition, the efflux ratio of each compound was determined. The analyte and reference compounds were quantified by LC-MS/MS based on the analyte/IS peak area ratio.

[3] = Pharmacokinetic evaluation in mice; assay type: in vivo, CD1 mice; details: plasma
Protocol: The test compound was dissolved in the vehicle to prepare a clear solution or a homogeneous suspension. Three mice (CD1 mice) per group were administered 2 mg/kg via the tail vein and 10 mg/kg orally (PO). Blood was collected at 0.083 h, 0.25 h, 0.5 h, 1 h, 2 h, 4 h, 8 h, and 24 h after intravenous administration, and at 0.083 h, 0.25 h, 0.5 h, 1 h, 2 h, 4 h, 8 h and 24 h after oral administration. Plasma samples were centrifuged, and the supernatant was collected to prepare samples for quantitative analysis by LC/MS/MS. Conclusion: At least some of the compounds of the present application (e.g., compound 25) have excellent pharmacokinetic properties in mice (including but not limited to Cl (clearance rate), T1/2 (half-life), Cmax (peak concentration), AUC (area under the drug-time curve), F (bioavailability), etc.). Table 6 The mouse PK properties of compound 25

mouse primary neurons = test: Neuronal injury model based on mouse primary neurons (axotomy, TUJ1 staining); assay type: cell-based; details: 0.3 µM, compared with the control I-5; axotomy at DIV 10, Figure 1
Protocol: Methods: Neocortices were dissected from the brains of newborn mice at DIV 0 (Day In Vitro 0), digested with 0.05% (w/v) trypsin/EDTA, and incubated at 37°C for 10 min. Neuronal cells obtained after digestion were seeded in cell culture dishes preincubated with poly-D-lysine in Neurobasal/B-27 medium (Neurobasal medium supplemented with 1% (v/v) B-27, 2 mM glutamine, 100 U/ml penicillin, and […] streptomycin). Starting from DIV 3, a half of the medium was replaced with fresh Neurobasal/B-27 medium every two days. At DIV 10, the cultures were subjected to axotomy and compound administration. The cells were fixed with 4% paraformaldehyde the day after axotomy and subjected to cell immunofluorescence staining for TUJ1. Confocal imaging of axons was performed using a Zeiss LSM710 laser confocal microscope.

[4] = Kinetic solubility evaluation; assay type: physicochemical; details: pbs, pH 7.4, aqueous buffer
Protocol: 10 mM stock solution was prepared by dissolving the test compound in DMSO. 100 mM K2HPO4 solution was prepared by adding 8.71 g K2HPO4 to 500 mL deionized water. 100 mM KH2PO4 solution was prepared by adding 2.05 g KH2PO4 to 150 mL deionized water. 405 mL of 100 mM K2HPO4 and 95 mL of 100 mM KH2PO4 were mixed and adjusted to pH 7.4 with 100 mM K2HPO4/KH2PO4 solution.
16 µL of 10 mM compound stock solution was added to 784 µL of PBS buffer (n = 3) by 96 well plate, and the plate was sealed and shaken at 25°C, 1000 rpm for 1.5 h. After incubation, the solution was transferred to a filter plate. All samples were filtered. 5 µL of the filtrate was taken, added to 5 µL of DMSO and 490 µL acetonitrile aqueous solution containing internal standard (1:1) and mixed. Then the mixed solution was diluted with acetonitrile aqueous solution containing internal standard (1:1) according to the properties of the compound and its response in the mass spectrometer. The dilution factor was adjusted according to the solubility value and UPLC-MS/MS signal response.

[5] = In vivo brain permeability (plasma and cerebrospinal fluid PK); details: CD1 mice, PO 10 mg/kg; for AUC(0-inf) / Cmax / Tmax / half-life: mouse
Protocol: The test compound was dissolved in the vehicle to prepare a clear solution or a homogeneous suspension. Three mice (CD1 mice) per group were orally administered (PO) at 10 mg/kg. Plasma and cerebrospinal fluid were collected at 1 h, 4 h, and 8 h after oral administration and quantitatively analyzed by LC/MS/MS. Conclusion: At least some of the compounds of the present application have reached very high levels of Cmax and AUC in cerebrospinal fluid and have good in vivo brain permeability. […] Table 7 Plasma and cerebrospinal fluid PK of compound 25

sciatic nerve = test: Mouse sciatic nerve axotomy (SNA) model; assay type: in vivo; details: mice, Figure 2
Description: Methods: Mice were anesthetized with isoflurane, and the skin of the right hind limb was shaved and sterilized with iodine. An incision was made between the knee and hip joints, and the gluteal muscle was carefully separated using a pair of sterile surgical scissors. The sciatic nerve was cut proximally to the thigh with a pair of sterile surgical scissors, and a 1-2 mm segment of the nerve was removed to prevent axonal regeneration into the distal stump. The gluteal muscle was then placed back to its original anatomical position, and the overlying skin was reattached with surgical staples or sutures.
To examine the denervation of the neuromuscular junction (NMJ), the tibialis anterior muscles were dissected from perfused animals and fixed overnight with 4% paraformaldehyde/PBS at 4°C. Immunohistochemical staining was subsequently performed with Neurofilament-L antibody and Synapsin-1 antibody as well as acetylcholine receptor (AchR) markers. Finally, imaging was performed by laser confocal microscope Zeiss LSM710.

SMILES: O=C1C(Cc2ccc(Cl)c(F)c2)CCCN1c1nc2c(ccc3cnccc32)o1 (stereo not shown) [Cpd. 21]
- IC50 (SARM1): 150 to 500 nM

SMILES: O=C1C(Cc2cc(F)c(Cl)c(F)c2)CCN1c1nc2ccc3cnccc3c2[nH]1 (stereo not shown) [Cpd. 4]
- half-life [1]: 28.9 min
- IC50 (SARM1): < 150 nM
- efflux ratio at 2 h, 10 µM [2]: 1.15
- Papp A→B at 2 h, 10 µM [2]: 11 ×10⁻⁶ cm/s

SMILES: O=C1C(Cc2ccc(Cl)c(F)c2)CCN1c1nc2c([nH]1)COc1cnccc1-2 (stereo not shown) [Cpd. 24]
- IC50 (SARM1): < 150 nM

SMILES: O=C1C(Cc2ccc(Cl)cc2)CCN1c1nc2ccc3cnccc3c2[nH]1 (stereo not shown) [Cpd. 2]
- IC50 (SARM1): < 150 nM

SMILES: O=C1C(Cc2ccc(Cl)c(F)c2)CCCN1c1nc2c([nH]1)COc1cnccc1-2 (stereo not shown) [Cpd. 25]
- half-life [1]: 26.1 min
- AUC(0-inf) ([3]; mouse IV (2 mg/kg)): 2210 ng·h/mL
- C0 ([3]; mouse IV (2 mg/kg)): 2110 ng/mL
- clearance ([3]; mouse IV (2 mg/kg)): 15.1 mL/min/kg
- half-life ([3]; mouse IV (2 mg/kg)): 79.8 min
- Vd ([3]; mouse IV (2 mg/kg), read-out: Vss): 1.31 L/kg
- AUC(0-inf) ([3]; mouse PO (10 mg/kg)): 9820 ng·h/mL
- Cmax ([3]; mouse PO (10 mg/kg)): 3000 ng/mL
- Tmax ([3]; mouse PO (10 mg/kg)): 25 min
- half-life ([3]; mouse PO (10 mg/kg)): 110 min
- bioavailability ([3]; mouse PO (10 mg/kg) vs IV (2 mg/kg)): 89%
- neuron-protecting activity (axonal loss after axonal injury) (mouse primary neurons): stronger neuron-protecting activity
- solubility at […] [4]: > 50 µg/mL
- AUCbrain/AUCplasma [5]: 0.71
- AUC(0-inf) ([5]; Cerebrospinal fluid PK): 6900 ng·h/mL
- Cmax ([5]; Cerebrospinal fluid PK): 2200 ng/mL
- Tmax ([5]; Cerebrospinal fluid PK): 60 min
- half-life ([5]; Cerebrospinal fluid PK): 84.6 min
- AUC(0-inf) ([5]; Plasma PK): 9700 ng·h/mL
- Cmax ([5]; Plasma PK): 3090 ng/mL
- Tmax ([5]; Plasma PK): 60 min
- half-life ([5]; Plasma PK): 84 min
- IC50 (SARM1): < 150 nM
- efflux ratio at 2 h, 10 µM [2]: 0.9
- Papp A→B at 2 h, 10 µM [2]: 7.56 ×10⁻⁶ cm/s
- protection of axons from injury-induced axonal degeneration (sciatic nerve): significantly protect axons from injury-induced axonal degeneration

SMILES: O=C1C(Cc2ccc(Cl)c(F)c2)CCN1c1nc2ccc3cnccc3c2[nH]1 (single isomer, unassigned) [Cpd. 18]
- IC50 (SARM1): < 150 nM

SMILES: O=C1C(Cc2ccc(Cl)c(F)c2)CCN1c1nc2ccc3cnccc3c2[nH]1 (stereo not shown) [Cpd. 5]
- IC50 (SARM1): < 150 nM

SMILES: O=C(CCc1cnc(Cl)c(F)c1)Nc1nc2ccc3cnccc3c2[nH]1 [Cpd. 10]
- half-life [1]: 21.1 min
- IC50 (SARM1): 150 to 500 nM

SMILES: O=C1C(Cc2ccc(Cl)c(F)c2)CCN1c1nc2ccc3cnccc3c2[nH]1 (single isomer, unassigned) [Cpd. 19]
- IC50 (SARM1): < 150 nM

- IC50 (SARM1): 150 to 500 nM
SMILES: O=C(CCc1ccc(Cl)c(F)c1)Nc1nc2c(ccc3cnccc32)o1 [Cpd. 22]

- IC50 (SARM1): 500 to 1000 nM
SMILES: O=C(CCc1ccc(Cl)cc1)Nc1[nH]nc2c1ccc1cnccc12 [Cpd. 12]

SMILES: C=C(CCc1ccc(Cl)cc1)C(=O)Nc1nc2ccc3cnccc3c2[nH]1 [Cpd. 11]
- IC50 (SARM1): > 1000 nM

SMILES: O=C(CCc1ccc(Cl)c(F)c1)Nc1nc2ccc3cnccc3c2[nH]1 [Cpd. 9]
- half-life [1]: 19.7 min
- IC50 (SARM1): < 150 nM

SMILES: O=C1C(Cc2ccc(F)c(Cl)c2)CCN1c1nc2ccc3cnccc3c2[nH]1 (stereo not shown) [Cpd. 3]
- IC50 (SARM1): 500 to 1000 nM

SMILES: O=C1C(Cc2cnc(Cl)c(F)c2)CCN1c1nc2ccc3cnccc3c2[nH]1 (stereo not shown) [Cpd. 7]
- IC50 (SARM1): 150 to 500 nM

SMILES: O=C1C(Cc2ccc(Cl)c(Cl)c2)CCN1c1nc2ccc3cnccc3c2[nH]1 (stereo not shown) [Cpd. 6]
- IC50 (SARM1): 150 to 500 nM

SMILES: O=C1C(Cc2cc(F)c(Cl)c(F)c2)CCCN1c1nc2ccc3cnccc3c2[nH]1 (stereo not shown) [Cpd. 14]
- IC50 (SARM1): < 150 nM

SMILES: O=C1C(Cc2ccc(Cl)c(F)c2)CCCN1c1nc2ccc3cnccc3c2[nH]1 (stereo not shown) [Cpd. 15]
- IC50 (SARM1): < 150 nM

SMILES: O=C1C(Cc2ccc(Cl)c(F)c2)CCN1c1nc2c(ccc3cnccc32)o1 (stereo not shown) [Cpd. 20]
- IC50 (SARM1): < 150 nM

SMILES: O=C(CCc1ccc(Cl)cc1)Nc1nc2ccc3cnccc3c2[nH]1 [Cpd. 8]
- IC50 (SARM1): < 150 nM

SMILES: O=C(CCc1ccc(Cl)c(F)c1)Nc1nc2c([nH]1)COc1cnccc1-2 [Cpd. 23]
- half-life [1]: 37.4 min
- IC50 (SARM1): < 150 nM
